These are literature values, as cited in EP2361081B1, “MULTI PORTION INTRA-ORAL DOSAGE FORM AND USE THEREOF” (McNeil AB, priority 2008, dated 2010).

Molecules are shown by their SMILES. Read-outs that look alike come from different tables or passages of the source. Peptide text beside a SMILES is read from it.

The conditions of series [1]: pKa value lying in interval 8 - 9,6; taken from Handbook of Chemistry and Physics, 85th edition.
The conditions of series [2]: stated in the context of absorption from the oral cavity.
Setting [3] is: in water; footnote b) = low or uncertain value, taken from Handbook of Chemistry and Physics, 85th edition.

Turning to `N[C@@H](CCC(=O)O)C(=O)O` [Glutamic acid], the “pKa value (in interval 8 - 9,6)” value in series [1] is reported as 9,58. Take `N[C@@H](Cc1c[nH]cn1)C(=O)O` [Histidine]: under setting [3], the “Solubility in water, g/kg” value is 43,5 g/kg. Further, the “pKa value (in interval 8 - 9,6)” value in series [1] was 9,09. Take `CN1CCCC1c1cccnc1` (stereo not drawn) [nicotine, 3-(1-methyl-2-pyrrolidinyl)-pyridine]: in series [2], the pKa of nicotine entry is given as “about 7.8”. With `CC(C)C[C@H](N)C(=O)O` [Leucine], under setting [3], the “Solubility in water, g/kg” value is listed as 22,0 g/kg. `CC(C)[C@H](N)C(=O)O` [Valine]: the “Solubility in water, g/kg” value under setting [3] was 88,5 g/kg. In addition, the “pKa value (in interval 8 - 9,6)” value in series [1] was 9,52. For `NC(=O)CC[C@H](N)C(=O)O` [Glutamine], the “Solubility in water” value under setting [3] is given as 42 g/kg. Moreover, the “pKa value (in interval 8 - 9,6)” value in series [1] is listed as 9,00. For the molecule `C[C@@H](O)[C@H](N)C(=O)O` [Threonine], in series [1], the “pKa value (in interval 8 - 9,6)” value is on record as 8,96.

As to `N[C@@H](Cc1ccccc1)C(=O)O` [Phenylalanine], the “Solubility in water, g/kg” value under setting [3] is recorded as 27,9 g/kg. The “pKa value (in interval 8 - 9,6)” value in series [1] is reported as 9,09. On to `N[C@@H](CS(=O)(=O)O)C(=O)O` [Cysteic acid], for which the “Solubility in water, g/kg” value under setting [3] is reported as “Very soluble”. In series [1], the “pKa value (in interval 8 - 9,6)” value was 8,70.

`N[C@@H](CO)C(=O)O` [Serine]: the “pKa value (in interval 8 - 9,6)” value in series [1] is recorded as 9,05. With `CC[C@H](C)[C@H](N)C(=O)O` [Isoleucine], the “Solubility in water, g/kg” value under setting [3] is listed as 34,2 g/kg. Besides, in series [1], the “pKa value (in interval 8 - 9,6)” value is recorded as 9,60. `CSCC[C@H](N)C(=O)O` [Methionine]: the “Solubility in water” value under setting [3] is 56 g/kg. Moreover, the “pKa value (in interval 8 - 9,6)” value in series [1] is 9,08.

With `NCC(=O)NCC(=O)O` [N-Glycylglycine] (H-Gly-Gly-OH), in series [1], the “pKa value (in interval 8 - 9,6)” value is given as 8,10. For the molecule `NC(=O)C[C@H](N)C(=O)O` [Aspargine], the “pKa value (in interval 8 - 9,6)” value in series [1] is 8,73.

Turning to `NCC(=O)O` [Glycine], the “pKa value (in interval 8 - 9,6)” value in series [1] is reported as 9,58. With `NCCCC[C@H](N)C(=O)O` [Lysine], the “Solubility in water, g/kg” value is “Very soluble ^a)b)”. The “pKa value (in interval 8 - 9,6)” value in series [1] is reported as 9,16.
